Laboratory results from patent US20220220103A1, “CYCLIN-DEPENDENT KINASE INHIBITORS” (SPV THERAPEUTICS INC., priority 2018, published 2022).

Legend:
CDK6-CYCLIND3 = CDK6-CYCLIND3 (Homo sapiens, UniProt Q00534); test: Microfluidic LabChip inhibition assay, CDK6-CYCLIND3; format: biochemical; conditions: Table 2; ATP 300 μM, 25° C.; read-out: CDK6 IC50
Description: (§1) The reaction was terminated by the addition of EDTA. The plates were analyzed using a Caliper LabChip 3000.
(§2) Additional inhibition assays were performed as described above.

CDK4-CYCLIND1 = CDK4-CYCLIND1 (Homo sapiens, UniProt P11802); test: Microfluidic LabChip inhibition assay, CDK4-CYCLIND1; format: biochemical; conditions: Table 2; ATP 200 μM, 25° C.; read-out: CDK4 IC50
Description: as §1, §2

CDK4-CYCLIND1, sequence (P11802 whole entry): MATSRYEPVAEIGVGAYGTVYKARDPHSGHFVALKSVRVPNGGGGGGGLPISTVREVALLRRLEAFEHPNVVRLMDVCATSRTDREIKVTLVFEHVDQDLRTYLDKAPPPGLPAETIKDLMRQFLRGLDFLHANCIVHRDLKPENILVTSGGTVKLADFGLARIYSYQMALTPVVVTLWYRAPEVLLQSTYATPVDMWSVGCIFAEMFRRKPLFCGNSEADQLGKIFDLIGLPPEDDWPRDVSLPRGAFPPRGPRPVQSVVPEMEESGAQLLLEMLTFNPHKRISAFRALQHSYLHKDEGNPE
CDK4-CYCLIND1, sequence (P24385 whole entry partner): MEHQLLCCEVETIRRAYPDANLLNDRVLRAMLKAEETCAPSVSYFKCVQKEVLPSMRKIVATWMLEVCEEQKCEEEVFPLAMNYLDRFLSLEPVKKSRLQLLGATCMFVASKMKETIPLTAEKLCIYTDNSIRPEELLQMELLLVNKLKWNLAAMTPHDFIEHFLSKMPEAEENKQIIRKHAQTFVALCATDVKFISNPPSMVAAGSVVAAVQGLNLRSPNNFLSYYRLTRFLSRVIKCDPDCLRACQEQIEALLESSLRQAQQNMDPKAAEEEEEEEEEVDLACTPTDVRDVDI
CDK6-CYCLIND3, sequence (Q00534 whole entry): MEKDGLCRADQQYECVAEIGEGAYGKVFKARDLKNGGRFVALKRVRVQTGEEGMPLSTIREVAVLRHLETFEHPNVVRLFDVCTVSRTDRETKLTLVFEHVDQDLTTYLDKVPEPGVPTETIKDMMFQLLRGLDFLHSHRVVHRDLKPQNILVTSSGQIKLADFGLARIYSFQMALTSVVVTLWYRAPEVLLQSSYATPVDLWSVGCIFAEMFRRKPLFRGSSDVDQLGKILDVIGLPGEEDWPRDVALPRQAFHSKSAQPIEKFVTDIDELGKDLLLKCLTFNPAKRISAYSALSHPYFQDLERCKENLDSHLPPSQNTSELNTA
CDK6-CYCLIND3, sequence (P30281 whole entry partner): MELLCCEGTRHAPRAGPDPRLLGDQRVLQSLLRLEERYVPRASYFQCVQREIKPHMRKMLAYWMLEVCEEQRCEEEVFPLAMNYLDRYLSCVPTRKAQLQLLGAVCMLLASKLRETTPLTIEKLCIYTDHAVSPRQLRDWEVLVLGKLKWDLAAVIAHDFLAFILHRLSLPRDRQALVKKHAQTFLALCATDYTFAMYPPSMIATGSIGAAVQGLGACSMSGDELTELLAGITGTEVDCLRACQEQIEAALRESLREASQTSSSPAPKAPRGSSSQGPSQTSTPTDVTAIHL

Structure (SMILES)	IC50 (CDK6-CYCLIND3) [nM]	IC50 (CDK4-CYCLIND1) [nM]
CN(C)CCOc1ccc(Nc2ncc3cc(C#N)c(=O)n(C4CCCC4)c3n2)nc1 [Compound B6, 8-cyclopentyl-2-((5-(2-(dimethylamino)ethoxy)pyridin-2-yl)amino)-7-oxo-7,8-dihydropyrido[2,3-d]pyrimidine-6-carbonitrile]	120	97.8
N#Cc1cc2cnc(Nc3ccc(OCCN4CCCCC4)nc3)nc2n(C2CCCC2)c1=O [Compound B8, 8-cyclopentyl-7-oxo-2-((6-(2-(piperidin-1-yl)ethoxy)pyridin-3-yl)amino)-7,8-dihydropyrido[2,3-d]pyrimidine-6-carbonitrile]	55.3	29.1
N#Cc1cc2cnc(Nc3ccc(C4=CCNCC4)cn3)nc2n(C2CCCC2)c1=O [Compound B9, 8-cyclopentyl-7-oxo-2-((1′,2′,3′,6′-tetrahydro-[3,4′-bipyridin]-6-yl)amino)-7,8-dihydropyrido[2,3-d]pyrimidine-6-carbonitrile]	37.2	33.8
N#Cc1cc2cnc(Nc3cc(C(F)(F)F)c(N4CCNCC4)cn3)nc2n(C2CCCC2)c1=O [Compound B10, 8-cyclopentyl-7-oxo-2-((5-(piperazin-1-yl)-4-(trifluoromethyl)pyridin-2-yl)amino)-7,8-dihydropyrido[2,3-d]pyrimidine-6-carbonitrile]	9240	2820
CN(C)CCOc1ccc(Nc2ncc3cc(C#N)c(=O)n(C4CCCC4)c3n2)cn1 [Compound B11, 8-cyclopentyl-2-((6-(2-(dimethylamino)ethoxy)pyridin-3-yl)amino)-7-oxo-7,8-dihydropyrido[2,3-d]pyrimidine-6-carbonitrile]	133	37.6

Other lines, results leading:

IC50 (CDK6-CYCLIND3) [nM]	IC50 (CDK4-CYCLIND1) [nM]	Structure (SMILES)
41.5	31.1	CN1CCN(c2ccc(Nc3ncc4cc(C#N)c(=O)n(C56CC(C5)C6)c4n3)cc2)CC1 [Compound B1, 8-(bicyclo[1.1.1]pentan-1-yl)-2-((4-(4-methylpiperazin-1-yl)phenyl)amino)-7-oxo-7,8-dihydropyrido[2,3-d]pyrimidine-6-carbonitrile]
253	307	N#Cc1cc2cnc(Nc3ccc(N4CCNCC4)cn3)nc2n(C23CC(C2)C3)c1=O [Compound B2, 8-(bicyclo[1.1.1]pentan-1-yl)-7-oxo-2-((5-(piperazin-1-yl)pyridin-2-yl)amino)-7,8-dihydropyrido[2,3-d]pyrimidine-6-carbonitrile]
432	504	CN1CCN(c2ccc(Nc3ncc4cc(C#N)c(=O)n(C56CC(C5)C6)c4n3)nc2)CC1 [Compound B3, 8-(bicyclo[1.1.1]pentan-1-yl)-2-((5-(4-methylpiperazin-1-yl)pyridin-2-yl)amino)-7-oxo-7,8-dihydropyrido[2,3-d]pyrimidine-6-carbonitrile]
154	213	CC(C)N1CCN(c2ccc(Nc3ncc4cc(C#N)c(=O)n(C56CC(C5)C6)c4n3)nc2)CC1 [Compound B4, 8-(bicyclo[1.1.1]pentan-1-yl)-2-((5-(4-isopropylpiperazin-1-yl)pyridin-2-yl)amino)-7-oxo-7,8-dihydropyrido[2,3-d]pyrimidine-6-carbonitrile]
≥ 30000	25700	CN1CCN(c2cnc(Nc3ncc4cc(C#N)c(=O)n(C5CCCC5)c4n3)cc2C(F)(F)F)CC1 [Compound B5, 8-cyclopentyl-2-((5-(4-methylpiperazin-1-yl)-4-(trifluoromethyl)pyridin-2-yl)amino)-7-oxo-7,8-dihydropyrido[2,3-d]pyrimidine-6-carbonitrile]
103	101	N#Cc1cc2cnc(Nc3ccc(OCCN4CCCC4)cn3)nc2n(C2CCCC2)c1=O [Compound B7, 8-cyclopentyl-7-oxo-2-((5-(2-(pyrrolidin-1-yl)ethoxy)pyridin-2-yl)amino)-7,8-dihydropyrido[2,3-d]pyrimidine-6-carbonitrile]
